Where a name gives a salt, the structure may show the parent alone.
melting point | SMILES
193 to 195 °C | CCOCc1nc2c(N)nc3ccccc3c2n1CC(C)(C)CS(=O)(=O)N(C)C (as salt: hydrochloride) [Example 25, N,N-Dimethyl 3-(4-amino-2-ethoxymethyl-1H-imidazo[4,5-c]quinolin-1-yl)-2,2-dimethylpropane-1-sulfonamide]
225 to 227 °C | CCc1nc2c(N)nc3ccccc3c2n1CCCCS(N)(=O)=O (as salt: trifluoroacetate) [Example 6, 4-(4-Amino-2-ethyl-1H-imidazo[4,5-c]quinolin-1-yl)butane-1-sulfonamide]
225 to 228 °C | CCc1nc2c(N)nc3ccccc3c2n1CCCS(=O)(=O)NC [Example 1, N-Methyl 3-(4-amino-2-ethyl-1H-imidazo[4,5-c]quinolin-1-yl)propane-1-sulfonamide]
209 to 211 °C | CCc1nc2c(N)nc3ccccc3c2n1CCCS(=O)(=O)N(C)C [Example 2, N,N-Dimethyl 3-(4-amino-2-ethyl-1H-imidazo[4,5-c]quinolin-1-yl)propane-1-sulfonamide]
193 to 195 °C | CCc1nc2c(N)nc3ccccc3c2n1CCCCS(=O)(=O)N(C)C [Example 3, N,N-Dimethyl 4-(4-amino-2-ethyl-1H-imidazo[4,5-c]quinolin-1-yl)butane-1-sulfonamide]
190 to 191 °C | CCc1nc2c(N)nc3ccccc3c2n1CCCCS(=O)(=O)NC [Example 4, N-Methyl 4-(4-amino-2-ethyl-1H-imidazo[4,5-c]quinolin-1-yl)butane-1-sulfonamide]
176 to 177 °C | CCc1nc2c(N)nc3ccccc3c2n1CCCCS(=O)(=O)NCc1ccc(OC)cc1 [Example 5, N-(4-Methoxybenzyl) 4-(4-amino-2-ethyl-1H-imidazo[4,5-c]quinolin-1-yl)butane-1-sulfonamide]
155 to 157 °C | CN(C)S(=O)(=O)CCCn1cnc2c(N)nc3ccccc3c21 [Example 7, N,N-Dimethyl 3-(4-amino-1H-imidazo[4,5-c]quinolin-1-yl)propane-1-sulfonamide]
229 to 230 °C | CCOCc1nc2c(N)nc3ccccc3c2n1CCCCS(=O)(=O)Nc1ccc(OC)cc1 [Example 8, N-(4-Methoxyphenyl) 4-(4-amino-2-ethoxymethyl-1H-imidazo[4,5-c]quinolin-1-yl)butane-1-sulfonamide]
170 to 172 °C | CCOCc1nc2c(N)nc3ccccc3c2n1CCCCS(=O)(=O)NC [Example 10, N-Methyl 4-(4-amino-2-ethoxymethyl-1H-imidazo[4,5-c]quinolin-1-yl)butane-1-sulfonamide]
173 to 174 °C | CCOCc1nc2c(N)nc3ccccc3c2n1CCCCS(=O)(=O)N(C)C [Example 11, N,N-Dimethyl 4-(4-amino-2-ethoxymethyl-1H-imidazo[4,5-c]quinolin-1-yl)butane-1-sulfonamide]
185 to 188 °C | CCOCc1nc2c(N)nc3ccccc3c2n1CCCCS(=O)(=O)N1CCCCC1 [Example 12, 2-Ethoxymethyl-1-[4-(piperidine-1-sulfonyl)butyl]-1H-imidazo[4,5-c]quinoline-4-amine]
197 to 198 °C | CCOCc1nc2c(N)nc3ccccc3c2n1CCCCS(=O)(=O)NC1CCCCC1 [Example 13, N-Cyclohexyl 4-(4-amino-2-ethoxymethyl-1H-imidazo[4,5-c]quinolin-1-yl)butane-1-sulfonamide]
148 to 149 °C | CCCCNS(=O)(=O)CCCCn1c(COCC)nc2c(N)nc3ccccc3c21 [Example 14, N-Butyl 4-(4-amino-2-ethoxymethyl-1H-imidazo[4,5-c]quinolin-1-yl)butane-1-sulfonamide]
61 to 64 °C | CCOCc1nc2c(N)nc3ccccc3c2n1CCOCCCS(=O)(=O)N(C)C [Example 15, N,N-Dimethyl 3-[2-(4-amino-2-ethoxymethyl-1H-imidazo[4,5-c]quinolin-1-yl)ethoxy]propane-1-sulfonamide]
175 to 179 °C | CCOCc1nc2c(N)nc3ccccc3c2n1CCCCCS(=O)(=O)NC [Example 16, N-Methyl 5-(4-amino-2-ethoxymethyl-1H-imidazo[4,5-c]quinolin-1-yl)pentane-1-sulfonamide]
138 to 142 °C | CCOCc1nc2c(N)nc3ccccc3c2n1CCCCCS(=O)(=O)N(C)C [Example 17, N,N-Dimethyl 5-(4-amino-2-ethoxymethyl-1H-imidazo[4,5-c]quinolin-1-yl)pentane-1-sulfonamide]
188 to 192 °C | CCOCc1nc2c(N)nc3c(c2n1CCCCS(=O)(=O)NC)CCCC3 [Example 18, N-Methyl 4-(4-amino-2-ethoxymethyl-6,7,8,9-tetrahydro-1H-imidazo[4,5-c]quinolin-1-yl)butane-1-sulfonamide]
165 to 167 °C | CCOCc1nc2c(N)nc3c(c2n1CCCCS(=O)(=O)N(C)C)CCCC3 [Example 19, N,N-Dimethyl 4-(4-amino-2-ethoxymethyl-6,7,8,9-tetrahydro-1H-imidazo[4,5-c]quinolin-1-yl)butane-1-sulfonamide]
101 °C | CCOCc1nc2c(N)nc3ccccc3c2n1CCCCS(=O)(=O)NCc1ccc(OC)cc1 [Example 20, N-(4-Methoxybenzyl) 4-(4-amino-2-ethoxymethyl-1H-imidazo[4,5-c]quinolin-1-yl)butane-1-sulfonamide]
155 to 158 °C | CCOCc1nc2c(N)nc3ccccc3c2n1CCCCS(N)(=O)=O [Example 21, 4-(4-Amino-2-ethoxymethyl-1H-imidazo[4,5-c]quinolin-1-yl)butane-1-sulfonamide]
177 to 178 °C | CCOCc1nc2c(N)nc3ccccc3c2n1CCCCCS(=O)(=O)NCc1ccc(OC)cc1 [Example 22, N-(4-Methoxybenzyl) 5-(4-amino-2-ethoxymethyl-1H-imidazo[4,5-c]quinolin-1-yl)pentane-1-sulfonamide]
176 to 178 °C | CCOCc1nc2c(N)nc3ccccc3c2n1CCCCCS(N)(=O)=O [Example 23, 5-(4-Amino-2-ethoxymethyl-1H-imidazo[4,5-c]quinolin-1-yl)pentane-1-sulfonamide]
224 to 227 °C | CCOCc1nc2c(N)nc3c(c2n1CCCCS(N)(=O)=O)CCCC3 [Example 24, 4-(4-Amino-2-ethoxymethyl-6,7,8,9-tetrahydro-1H-imidazo[4,5-c]quinolin-1-yl)butane-1-sulfonamide]
127 to 128 °C | CCCc1nc2c(N)nc(C)c(C)c2n1CCCCS(=O)(=O)N(C)C [Example 26, N,N-Dimethyl 4-(4-Amino-6,7-dimethyl-2-propyl-1H-imidazo[4,5-c]pyridin-1-yl)butane-1-sulfonamide]
164 to 166 °C | CCCc1nc2c(N)nc(C)c(C)c2n1CCCCS(=O)(=O)NC [Example 27, N-Methyl 4-(4-Amino-6,7-dimethyl-2-propyl-1H-imidazo[4,5-c]pyridin-1-yl)butane-1-sulfonamide]
158 to 160 °C | CCOCc1nc2c(N)nc(C)c(C)c2n1CCCCS(=O)(=O)N(C)C [Example 28, N,N-Dimethyl 4-(4-Amino-6,7-dimethyl-2-ethoxymethyl-1H-imidazo[4,5-c]pyridin-1-yl)butane-1-sulfonamide]

Source: patent US8735421B2, “Imidazoquinolinyl sulfonamides” (3M Innovative Properties Company, priority 2003, dated 2014)
